Here are results for 3 molecules from paper PMC5291822 (Bioorganic & medicinal chemistry, 2016).

Assay [1] deals with magnesium-dependent phosphatidate phosphohydrolase-1. The note with it: off-target; cited from earlier work.
Assay [2] addresses T1, human GIVA cPLA2 (Homo sapiens, UniProt P47712).
T1 sequence (P47712 1-749): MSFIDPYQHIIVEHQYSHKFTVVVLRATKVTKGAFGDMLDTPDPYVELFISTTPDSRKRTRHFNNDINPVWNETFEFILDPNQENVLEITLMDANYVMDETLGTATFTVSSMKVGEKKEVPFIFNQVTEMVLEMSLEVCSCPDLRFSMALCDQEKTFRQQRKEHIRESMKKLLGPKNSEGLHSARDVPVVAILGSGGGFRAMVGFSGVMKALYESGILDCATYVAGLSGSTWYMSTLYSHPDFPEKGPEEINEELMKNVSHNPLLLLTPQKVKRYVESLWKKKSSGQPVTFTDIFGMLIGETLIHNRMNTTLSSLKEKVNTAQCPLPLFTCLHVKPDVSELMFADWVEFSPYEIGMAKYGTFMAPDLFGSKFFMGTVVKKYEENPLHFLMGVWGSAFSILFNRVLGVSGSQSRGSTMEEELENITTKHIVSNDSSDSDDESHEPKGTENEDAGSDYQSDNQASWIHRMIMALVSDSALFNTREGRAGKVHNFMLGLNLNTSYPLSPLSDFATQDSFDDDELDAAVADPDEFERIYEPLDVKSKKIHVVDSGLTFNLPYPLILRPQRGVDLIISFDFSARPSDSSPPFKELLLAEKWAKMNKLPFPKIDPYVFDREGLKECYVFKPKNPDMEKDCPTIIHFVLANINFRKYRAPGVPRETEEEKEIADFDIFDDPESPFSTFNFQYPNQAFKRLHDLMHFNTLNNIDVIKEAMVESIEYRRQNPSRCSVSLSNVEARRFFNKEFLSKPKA
Particulars: 0.091 mol fraction; reference inhibitor; cited from earlier work.

Assay [3] has as its system experimental autoimmune encephalomyelitis. The note with it: cited from earlier work.
Assay [4] concerns the target T1, human GIVA cPLA2. Put plainly: mixed micelle modified Dole assay, GIVA cPLA2. The class given is biochemical.
A further assay deals with T2, human GV sPLA2 (Homo sapiens, UniProt P39877).
T2 sequence (P39877 21-138): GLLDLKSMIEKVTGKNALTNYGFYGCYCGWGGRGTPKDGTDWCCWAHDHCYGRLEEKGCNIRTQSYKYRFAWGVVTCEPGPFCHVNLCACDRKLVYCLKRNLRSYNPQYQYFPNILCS
Put plainly: mixed micelle modified Dole assay, GV sPLA2. The assay is classed as biochemical.

In the case of `O=C1O/C(=C/Br)CCC1c1cccc2ccccc12` (centres unmarked) [BEL, Bromoenol lactone], the “inhibition of magnesium-dependent phosphatidate phosphohydrolase-1 (in words)” value in assay [1] is reported as “able to inhibit”.
For `O=C(CCCCc1ccccc1)C(F)(F)C(F)(F)F` [FKGK11], the “% Inhbition GIVA cPLA2” value at human GIVA cPLA2 [2] was “N.D.[17] (N.D. signifies compounds with less than 25% inhibition (or no detectable inhibition).)”. The “clinical severity and progression of experimental autoimmune encephalomyelitis” value in assay [3] is “strong reduction in the clinical severity and progression”.
Consider `CCCC[C@H](NC(=O)C(=O)CCCCc1ccc(OC)cc1)C(=O)NCC(=O)OC(C)(C)C` [compound 12c, (S)-tert-Butyl 2-(2-(6-(4-methoxyphenyl)-2-oxohexanamido)hexanamido)acetate], for which the “inhibition of GIVA cPLA2 (in words)” value against human GIVA cPLA2 [4] is given as “weak inhibition”. Moreover, the “inhibition of GV sPLA2 (in words)” value against human GV sPLA2 is given as “weak inhibition”.
